Molecular target: T1, NLRP3 (Mus musculus, UniProt Q8R4B8)
T1 construct: full length recombinant NLRP3 protein (N-Flag, expressed in Expi293F cells)
Test: intrinsic fluorescence spectroscopy titration (ex […]/em […] nm); supported by Western blot thermal shift ([…] to […] °C)
Format: binding

T1 sequence (Q8R4B8 whole entry): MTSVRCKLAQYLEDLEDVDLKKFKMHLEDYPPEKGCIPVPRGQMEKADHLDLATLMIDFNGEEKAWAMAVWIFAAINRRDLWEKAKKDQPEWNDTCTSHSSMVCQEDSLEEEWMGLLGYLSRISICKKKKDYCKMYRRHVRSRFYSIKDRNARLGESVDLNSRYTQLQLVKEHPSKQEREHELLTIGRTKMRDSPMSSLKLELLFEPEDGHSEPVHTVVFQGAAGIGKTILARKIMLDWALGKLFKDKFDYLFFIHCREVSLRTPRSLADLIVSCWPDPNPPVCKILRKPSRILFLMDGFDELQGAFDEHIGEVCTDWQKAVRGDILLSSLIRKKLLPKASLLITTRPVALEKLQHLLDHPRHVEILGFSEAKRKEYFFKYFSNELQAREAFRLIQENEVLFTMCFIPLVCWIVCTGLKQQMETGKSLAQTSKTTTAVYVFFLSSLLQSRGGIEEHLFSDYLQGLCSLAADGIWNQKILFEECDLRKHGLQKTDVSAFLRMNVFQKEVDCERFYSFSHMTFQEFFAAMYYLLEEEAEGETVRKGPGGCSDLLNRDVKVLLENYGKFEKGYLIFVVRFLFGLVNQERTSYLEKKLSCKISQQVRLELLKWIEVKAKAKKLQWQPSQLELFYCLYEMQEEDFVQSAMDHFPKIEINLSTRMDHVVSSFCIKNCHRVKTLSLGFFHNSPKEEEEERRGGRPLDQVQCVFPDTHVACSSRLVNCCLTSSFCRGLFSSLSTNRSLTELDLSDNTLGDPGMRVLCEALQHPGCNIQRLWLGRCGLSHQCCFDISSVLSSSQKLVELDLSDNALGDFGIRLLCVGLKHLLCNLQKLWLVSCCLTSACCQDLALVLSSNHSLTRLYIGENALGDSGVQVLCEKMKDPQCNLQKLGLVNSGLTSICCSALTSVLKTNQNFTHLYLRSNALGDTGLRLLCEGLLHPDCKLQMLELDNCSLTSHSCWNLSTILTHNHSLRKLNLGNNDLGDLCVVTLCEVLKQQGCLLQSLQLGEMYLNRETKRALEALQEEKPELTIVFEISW

Q: With CCCOc1ccc(Cl)cc1CN(CCc1ccc(S(=O)(=O)N2CCOCC2)cc1)C(=O)Cc1ccsc1 [YM-I-26] as the molecule, how does the Kd read?
A: 560 ± 30.3 nM
